# Earlier results as cited in US20110152372A1, “ANHYDROUS PETROLEUM JELLY/ELASTOMER-FREE DEPIGMENTING COMPOSITIONS COMPRISING A SOLUBILIZED PHENOLIC COMPOUND AND A RETINOID” (Galderma Research & Development, priority 2008, published 2011).
# Read-outs that look alike come from different tables or passages of the source.
compound,measurement,setting,value
Oc1ccc(O)cc1 [hydroquinone],Incidence of irritation,10% concentrations,relatively high
same,Incidence of irritation,concentration of 2%,virtually nonexistent
same,Incidence of irritation,preparations with a 5% dose,reduces greatly
